In US9534221B2, “Targeting the steroidogenic pathway for treating and/or preventing allergic diseases” (National Jewish Health, priority 2013, dated 2017):

Assays:
[1] = tested on: T-bet and GATA3 expression; assay: Quantitative RT-PCR of T-bet and GATA3 in CD8+ T cells; assay type: cell-based, mouse; details: CD8+ T cells in IL-2 or IL-2+IL-4, untreated vs 500 μM AMG
Procedure: CD8^+ effector memory T cells were generated in vitro as previously described (Miyahara, N. et al. J. Immunol. 172, 2549-2558 (2004); Miyahara, N. et al. J. Immunol. 174, 4979-4984 (2005)). In brief, mononuclear cells (MNCs) were processed from the spleens of OT-1 mice followed by stimulation of 1 μg/ml SIINFEKL peptide (SEQ ID NO:1) was used to stimulate cells for 1.5 hours. Two days after culture, living cells were re-isolated using histopaque and cultured in complete RPMI 1640 medium that contained recombinant mouse IL-2 (20 ng/ml) (R&D, Minneapolis, Minn.) or IL-2+IL-4 (20 ng/ml) (Peprotech, Rocky Hill, N.J.). For some experiments, AMG was added into the medium together with IL-2 or IL-2+IL-4. Medium with cytokines was changed every day for a further 4 days. The cells were then re-stimulated with 1 μg/ml SIINFEKL (SEQ ID NO:1) in medium containing 2 μM monensin (Calbiochem, La Jolla, Calif.) for 4 hours. Total RNA was extracted from 5×10^6 differentiated CD8^+ T cells using the RNeasy Mini kit (Qiagen, Valencia, Calif.). 1 μg of total RNA was converted into cDNA using iScript cDNA Synthesis kit (Bio-Rad, Hercules, Calif.). […] Fold-changes were determined using the 2^−ΔΔCt method, with normalization to expression of mouse GAPDH.

CD8+ T cells = assay: Flow cytometric intracellular staining of IFN-γ and IL-13 in CD8+ T cells; assay type: cell-based, mouse; details: no SIINFEKL
[2] = tested on: OVA-sensitized CD8-deficient mice; assay: Secondary allergen challenge model with adoptive transfer of CD8+ T cells; assay type: in vivo, mouse
Procedure: The experimental protocol for sensitization and challenge to OVA was as described previously (Oka, H. et al. Cell. Immunol. 206, 7-15 (2000); Sundrud, M. S, and Nolan, M. A. Curr. Opin. Immunol. 22, 286-292 (2010)), with some modification. CD8-deficient mice were sensitized with 20 μg of OVA (Calbiochem, La Jolla, Calif.) emulsified in 2.25 mg of alum (AlumImuject; Pierce, Rockford, Ill.) on days 0 and 14 by intraperitoneal injection. Mice were challenged with 0.2% OVA for 20 minutes on days 21, 22, and 23 using an ultrasonic nebulizer (model NE-U07; Omron Healthcare, Kyoto, J P). […] Two hours after transfer, mice were challenged (secondary) with 1% OVA for 20 minutes. Airway function was measured and samples were collected on day 38. Airway function was assessed as described previously (Oka, H. et al. Cell. Immunol. 206, 7-15 (2000); Sundrud, M. S, and Nolan, M. A. Curr. Opin. Immunol. 22, 286-292 (2010)) by measuring changes in airway resistance (RL) in response to increasing doses of inhaled methacholine (Sigma, St. Louis, Mo.). Data were presented as percentage change from the baseline RL values after saline inhalation. […] After measurement of AHR, lungs were lavaged via the tracheal tube with 1 ml of HBSS. The supernatants were collected and IL-4, IL-5, and IL-13 (eBioscience, San Diego, Calif.) levels were measured by ELISA as described previously. Total leukocyte numbers were counted and differentiated as described previously (Oka, H. et al. Cell. Immunol. 206, 7-15 (2000); Sundrud, M. S, and Nolan, M. A. Curr. Opin. Immunol. 22, 286-292 (2010)). Mouse lungs were isolated and fixed in 10% formalin, then embedded in paraffin and cut into 5-μm thick tissue sections. Sections were stained with periodic acid-Schiff (PAS) and mucus-containing cells were quantitated as previously described (Oka, H. et al. Cell. Immunol. 206, 7-15 (2000); Sundrud, M. S, and Nolan, M. A. Curr. Opin. Immunol. 22, 286-292 (2010)). For some experiments, lung tissue expression of Cyp11a1 was identified by immunohistochemistry staining using anti-human Cyp11a1 antibody.

Cyp11a1 = molecular target: T1, Cyp11a1 (Mus musculus, UniProt Q9QZ82); assay: Pregnenolone levels in serum of peanut sensitized and challenged mice (Cyp11a1 enzymatic activity); assay type: in vivo; details: AMG 20 mg/kg, PE/PE mice; PE/PE without AMG 4.69±0.92, PBS/PE 1.99±0.11
T1 construct: mononuclear cells (MNCs) were processed from the spleens of OT-1 mice; endogenous in cells
T1 sequence (Q9QZ82 37-526): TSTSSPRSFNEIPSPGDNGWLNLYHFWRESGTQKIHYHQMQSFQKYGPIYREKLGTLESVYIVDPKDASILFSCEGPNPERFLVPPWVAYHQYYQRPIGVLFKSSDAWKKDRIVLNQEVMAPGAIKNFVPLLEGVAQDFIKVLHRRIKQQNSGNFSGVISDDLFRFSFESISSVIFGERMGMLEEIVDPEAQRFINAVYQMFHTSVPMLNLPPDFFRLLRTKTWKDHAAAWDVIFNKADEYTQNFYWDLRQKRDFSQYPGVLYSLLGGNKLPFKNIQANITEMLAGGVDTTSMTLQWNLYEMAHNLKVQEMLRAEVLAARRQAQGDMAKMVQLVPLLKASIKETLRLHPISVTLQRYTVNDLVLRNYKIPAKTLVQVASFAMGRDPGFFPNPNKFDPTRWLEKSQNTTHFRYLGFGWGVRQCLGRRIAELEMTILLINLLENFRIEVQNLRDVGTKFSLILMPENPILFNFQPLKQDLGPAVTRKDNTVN
Procedure: AMG was dissolved in 1 M hydrogen chloride and diluted with saline for in vivo studies or diluted with RPMI medium for in vitro study. The final concentration of 1 M hydrogen chloride was less than 1% and 0.05% for in vivo and in vitro, respectively. PE sensitized and challenged mice received different doses (5, 10, 20 mg/kg) of the Cyp11a1 enzyme inhibitor (PE/PE/AMG) by means of gavage using a 22-gauge feeding needle (Fisher Scientific) twice a day during the peanut challenge phase. Controls included PE sensitized and challenged but vehicle (saline) treated (PE/PE/vehicle), or sham sensitized but PE challenged and vehicle-treated (PBS/PE/vehicle) mice.
Pregnenolone levels in serum and cell culture supernatants were measured by ELISA (ALPCO Diagnostics, Salem, N.H.), as described by the manufacturer.

[3] = recipients of AMG-treated vs untreated CD8+ T cells
[4] = recipients of CD8+ T cells pretreated with AMG vs untreated cells

CCC1(c2ccc(N)cc2)CCC(=O)NC1=O (stereo not drawn) [AMG, aminoglutethimide]
GATA3 expression [1]: no significant differences
T-bet expression [1]: no significant differences
IFN-γ single positive cells (CD8+ T cells; IL-2+AMG (500 μM)): 0.2 +/− 0.1%
IFN-γ+IL13+ double positive cells (CD8+ T cells; IL-2+AMG (500 μM)): 0%
IL-13 single positive cells (CD8+ T cells; IL-2+AMG (500 μM)): 0.4 +/− 0.2%
IFN-γ+IL13+ double positive cells (CD8+ T cells; IL-2+IL-4+AMG (500 μM)): 0.1%
Cyp11a1-positive cells in the lung ([2]; recipients of AMG-treated cells): few Cyp11a1-positive cells
IL-4 level in BAL fluid [2, 3]: significantly lower
IL-5 level in BAL fluid [2, 3]: significantly lower
IL-13 level in BAL fluid [2, 3]: significantly lower
Lung inflammation (histology) [2, 4]: less inflammation
Numbers of PAS+ mucus-containing goblet cells in lung [2, 4]: significantly decreased
AHR (changes in airway resistance RL) ([2]; transfer of 5×10^6 CD8+ T cells differentiated in IL-2 with AMG (500 μM)): failed to restore AHR or airway inflammation
Airway inflammation (cell composition in BAL fluid) ([2]; transfer of CD8+ T cells differentiated in IL-2 with AMG (500 μM)): failed to restore AHR or airway inflammation
Pregnenolone levels in serum (Cyp11a1): 2.98 ± 0.60 ng/mL
